For one assay, the target named is Mucolipin-3 (Homo sapiens, UniProt Q8TDD5). Put plainly: Dose response cell-based high-throughput screening assay for agonists of the transient receptor potential channel ML3 (TRPML3). [Related pubchem assays: 1526, 1424, 1448 ]. It counts as functional.
The target of another assay is Ion channel NompC (Danio rerio, UniProt Q7T1G6). Put plainly: Fluorescence counterscreen assay for TRPML3 agonists: dose response cell-based high-throughput screening assay to identify agonists of the transient receptor potential channel N1 (TRPN1). [Related pubchem assays: 1526, 1424, 1448 ]. It counts as functional.
Chain of Ion channel NompC (Q7T1G6 whole entry): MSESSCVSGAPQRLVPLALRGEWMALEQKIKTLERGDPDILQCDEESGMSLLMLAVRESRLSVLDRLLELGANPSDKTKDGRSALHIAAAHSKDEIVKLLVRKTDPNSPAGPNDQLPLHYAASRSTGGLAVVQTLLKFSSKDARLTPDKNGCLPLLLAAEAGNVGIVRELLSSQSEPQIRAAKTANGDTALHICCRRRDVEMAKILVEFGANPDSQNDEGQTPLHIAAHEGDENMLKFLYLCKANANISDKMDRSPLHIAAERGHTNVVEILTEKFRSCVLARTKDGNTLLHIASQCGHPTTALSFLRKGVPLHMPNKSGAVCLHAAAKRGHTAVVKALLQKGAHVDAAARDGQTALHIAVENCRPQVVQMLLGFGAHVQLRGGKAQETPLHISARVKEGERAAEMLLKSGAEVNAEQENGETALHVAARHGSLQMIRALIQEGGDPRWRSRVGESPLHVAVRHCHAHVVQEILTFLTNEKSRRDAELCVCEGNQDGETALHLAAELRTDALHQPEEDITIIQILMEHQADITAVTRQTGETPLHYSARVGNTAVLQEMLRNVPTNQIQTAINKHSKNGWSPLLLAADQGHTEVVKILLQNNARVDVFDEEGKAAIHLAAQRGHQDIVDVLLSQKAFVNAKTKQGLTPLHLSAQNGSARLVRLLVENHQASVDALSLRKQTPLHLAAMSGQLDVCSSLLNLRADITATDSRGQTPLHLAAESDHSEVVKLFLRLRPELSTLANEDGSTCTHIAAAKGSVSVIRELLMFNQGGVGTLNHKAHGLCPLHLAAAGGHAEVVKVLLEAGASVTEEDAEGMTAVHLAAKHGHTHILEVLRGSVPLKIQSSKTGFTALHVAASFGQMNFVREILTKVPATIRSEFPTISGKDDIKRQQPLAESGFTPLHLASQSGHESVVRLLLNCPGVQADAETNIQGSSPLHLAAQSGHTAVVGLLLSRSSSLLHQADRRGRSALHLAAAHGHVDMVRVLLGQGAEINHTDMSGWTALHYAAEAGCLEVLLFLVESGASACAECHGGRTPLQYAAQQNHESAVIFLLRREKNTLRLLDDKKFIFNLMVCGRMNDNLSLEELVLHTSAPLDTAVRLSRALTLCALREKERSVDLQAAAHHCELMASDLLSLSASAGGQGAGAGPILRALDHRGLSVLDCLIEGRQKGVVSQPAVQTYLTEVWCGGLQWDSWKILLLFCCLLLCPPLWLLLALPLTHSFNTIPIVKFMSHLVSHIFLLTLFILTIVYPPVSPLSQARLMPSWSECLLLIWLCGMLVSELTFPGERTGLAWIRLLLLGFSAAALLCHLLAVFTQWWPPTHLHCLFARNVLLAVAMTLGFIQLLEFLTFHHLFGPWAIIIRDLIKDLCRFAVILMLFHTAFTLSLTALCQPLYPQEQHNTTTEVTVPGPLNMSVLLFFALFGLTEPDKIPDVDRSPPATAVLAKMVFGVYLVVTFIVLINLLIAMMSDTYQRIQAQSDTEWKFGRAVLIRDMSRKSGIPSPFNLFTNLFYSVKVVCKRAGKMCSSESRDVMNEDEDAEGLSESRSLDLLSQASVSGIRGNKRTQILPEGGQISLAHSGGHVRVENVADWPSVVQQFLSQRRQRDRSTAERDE
In assay [1] the target is T1, Replicative DNA helicase DnaB (Mycobacterium tuberculosis, UniProt P9WMR3).
T1 sequence (P9WMR3 whole entry): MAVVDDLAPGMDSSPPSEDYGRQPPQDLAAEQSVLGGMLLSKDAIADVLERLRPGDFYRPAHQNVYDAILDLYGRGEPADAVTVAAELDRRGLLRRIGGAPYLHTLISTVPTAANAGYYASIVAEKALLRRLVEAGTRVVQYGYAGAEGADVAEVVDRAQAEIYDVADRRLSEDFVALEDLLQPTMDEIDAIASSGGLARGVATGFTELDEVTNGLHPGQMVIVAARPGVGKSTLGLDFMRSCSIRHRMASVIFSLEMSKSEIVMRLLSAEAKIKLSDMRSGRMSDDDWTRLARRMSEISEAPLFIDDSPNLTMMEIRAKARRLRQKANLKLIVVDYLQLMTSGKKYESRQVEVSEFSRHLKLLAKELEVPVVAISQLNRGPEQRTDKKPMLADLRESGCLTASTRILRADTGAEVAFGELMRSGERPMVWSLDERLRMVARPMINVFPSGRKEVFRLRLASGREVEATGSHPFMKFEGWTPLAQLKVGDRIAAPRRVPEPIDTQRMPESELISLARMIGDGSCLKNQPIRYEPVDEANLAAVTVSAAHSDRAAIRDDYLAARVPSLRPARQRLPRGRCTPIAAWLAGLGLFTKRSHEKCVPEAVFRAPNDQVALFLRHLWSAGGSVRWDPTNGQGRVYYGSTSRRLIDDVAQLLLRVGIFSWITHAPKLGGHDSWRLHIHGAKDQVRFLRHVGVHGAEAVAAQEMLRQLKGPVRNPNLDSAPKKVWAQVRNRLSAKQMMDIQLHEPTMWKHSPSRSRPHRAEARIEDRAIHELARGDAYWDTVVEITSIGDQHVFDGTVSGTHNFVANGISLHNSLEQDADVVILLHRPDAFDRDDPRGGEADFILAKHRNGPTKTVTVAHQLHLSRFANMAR
Put plainly: DnaB intein splicing inhibitors, dose response, biochemical, cell-free fluorescence (AID 449749). The format is functional.

Another assay addresses Estrogen receptor beta (Homo sapiens, UniProt Q92731). Put plainly: ERβ–SRC-3 coactivator interaction inhibitors, confirmation, orthogonal assay, biochemical, ELISA, streptavidin-HRP readout (AID 1060).
The target of assay [2] is Eukaryotic translation initiation factor 4E (Mus musculus, UniProt P63073). Put plainly: eIF4E–eIF4G protein interaction inhibitors, dose response, biochemical, TR-FRET (AID 855).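 Note: potency for disrupting eIF4E binding to eIF4GI seen as loss of FRET.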 The format is functional.
Chain of Eukaryotic translation initiation factor 4E (P63073 whole entry): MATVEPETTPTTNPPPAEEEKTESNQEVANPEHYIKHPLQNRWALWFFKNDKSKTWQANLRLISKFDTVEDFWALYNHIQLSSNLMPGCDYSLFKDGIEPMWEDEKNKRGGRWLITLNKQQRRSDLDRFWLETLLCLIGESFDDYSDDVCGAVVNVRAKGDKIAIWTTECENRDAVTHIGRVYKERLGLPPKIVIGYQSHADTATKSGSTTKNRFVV
Assay [3] is described as follows: growth suppression of PTEN-null colon cells, dose response, cell-based, HCT116 PTEN knockout (AID 1047).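 Note: HCT116 colon tumor cells with PTEN knocked out; cells exposed to compound for 60 hours before readout; potency for loss of cell viability measured by luminescence.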 It counts as functional.
A short description of assay [4]: growth suppression of beta-catenin-knockout colon cells, dose response, cell-based, HCT116, human colon tumor (AID 1045).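 Note: HCT116 colon tumor cells with beta catenin knocked out; cells exposed to compound for 60 hours.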 The format is functional.
The target of assay [5] is T2, RNA-binding protein pos-1 (Caenorhabditis elegans, UniProt G5EF15).
T2 sequence (G5EF15 whole entry): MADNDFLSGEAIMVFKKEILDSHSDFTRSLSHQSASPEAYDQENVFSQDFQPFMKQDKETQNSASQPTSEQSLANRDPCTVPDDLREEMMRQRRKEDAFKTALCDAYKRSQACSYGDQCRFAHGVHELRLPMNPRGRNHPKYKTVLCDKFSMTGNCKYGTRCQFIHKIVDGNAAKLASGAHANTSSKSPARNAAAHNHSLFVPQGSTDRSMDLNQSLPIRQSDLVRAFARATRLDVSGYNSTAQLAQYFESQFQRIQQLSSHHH
Put plainly: inhibitors of POS-1/mex-3 RNA binding, dose response, biochemical, fluorescence polarization (AID 1964).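 Note: purified POS-1 fused to maltose binding protein made in E. coli; potency of compounds blocking POS-1 binding to fluorescent RNA.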

The target of the next assay is T3, Protein RecA (Mycobacterium tuberculosis, UniProt P9WHJ3).
T3 sequence (P9WHJ3 whole entry): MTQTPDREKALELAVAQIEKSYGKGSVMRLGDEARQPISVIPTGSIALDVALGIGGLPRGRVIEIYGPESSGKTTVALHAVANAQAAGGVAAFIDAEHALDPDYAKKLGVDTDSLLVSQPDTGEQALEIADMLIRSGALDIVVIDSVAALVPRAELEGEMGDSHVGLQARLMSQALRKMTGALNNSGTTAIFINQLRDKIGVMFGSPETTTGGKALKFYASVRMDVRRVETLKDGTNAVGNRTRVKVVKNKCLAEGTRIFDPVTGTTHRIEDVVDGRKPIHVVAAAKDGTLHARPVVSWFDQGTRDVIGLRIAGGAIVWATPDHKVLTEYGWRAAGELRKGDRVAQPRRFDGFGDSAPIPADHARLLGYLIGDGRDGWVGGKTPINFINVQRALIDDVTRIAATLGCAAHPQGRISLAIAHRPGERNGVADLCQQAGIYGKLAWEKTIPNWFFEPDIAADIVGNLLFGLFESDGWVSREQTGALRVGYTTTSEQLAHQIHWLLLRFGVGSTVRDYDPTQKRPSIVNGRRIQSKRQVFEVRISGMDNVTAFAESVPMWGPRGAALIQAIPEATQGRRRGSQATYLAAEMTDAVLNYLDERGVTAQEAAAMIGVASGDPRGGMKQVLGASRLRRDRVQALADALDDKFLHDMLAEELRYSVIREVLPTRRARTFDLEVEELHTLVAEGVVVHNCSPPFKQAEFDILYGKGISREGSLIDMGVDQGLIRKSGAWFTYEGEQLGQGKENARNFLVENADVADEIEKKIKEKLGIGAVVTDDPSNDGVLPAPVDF
Put plainly: Fluorescence Cell-Free Homogeneous Dose Retest to Identify Inhibitors of RecA-Intein Splicing Activity. [Related pubchem assays (depositor defined):AID2097, AID2223, AID489010, AID492950]. It counts as functional.

Assay [6] concerns the target T4, Zinc finger protein mex-5 (Caenorhabditis elegans, UniProt Q9XUB2).
T4 sequence (Q9XUB2 whole entry): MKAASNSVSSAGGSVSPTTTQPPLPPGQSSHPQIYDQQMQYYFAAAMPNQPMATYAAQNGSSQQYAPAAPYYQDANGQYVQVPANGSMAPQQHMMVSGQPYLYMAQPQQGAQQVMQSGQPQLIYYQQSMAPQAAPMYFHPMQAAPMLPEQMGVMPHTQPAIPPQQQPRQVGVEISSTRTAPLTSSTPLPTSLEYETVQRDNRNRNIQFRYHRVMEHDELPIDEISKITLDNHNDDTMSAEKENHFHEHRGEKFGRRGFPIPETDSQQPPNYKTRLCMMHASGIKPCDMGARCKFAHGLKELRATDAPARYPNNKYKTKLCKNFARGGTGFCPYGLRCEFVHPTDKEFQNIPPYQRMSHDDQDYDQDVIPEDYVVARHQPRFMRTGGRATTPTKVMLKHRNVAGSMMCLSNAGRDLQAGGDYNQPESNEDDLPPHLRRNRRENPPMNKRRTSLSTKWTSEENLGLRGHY
Put plainly: MEX-5/TCR-2 RNA interaction inhibitors, dose response, biochemical, C. elegans, fluorescence polarization (AID 1960).

Assay [7] has as its target Neuropeptide Y receptor type 2 (Homo sapiens, UniProt P49146). Put plainly: Fluorescence-based cell-based high-throughput dose response assay for agonists of NPY-Y2. [Related pubchem assays: 1703 (Screening assay (CNGC inhibitors).), 1359 (Screening assay (NPY-Y2 potentiators or agonists).), 1304 (Screening assay (NPY-Y1 potentiators or agonists).), 1710 (Screening assay (NPY-Y2 agonists).), 1791 (Summary AID.)]. The format is functional.

For assay [8], the target named is Neuropeptide Y receptor type 1 (Homo sapiens, UniProt P25929). Put plainly: Fluorescence-based counterscreen for agonists of NPY-Y2: cell-based high-throughput dose response assay for agonists of NPY-Y1. It counts as functional.
Chain of Neuropeptide Y receptor type 1 (P25929 whole entry): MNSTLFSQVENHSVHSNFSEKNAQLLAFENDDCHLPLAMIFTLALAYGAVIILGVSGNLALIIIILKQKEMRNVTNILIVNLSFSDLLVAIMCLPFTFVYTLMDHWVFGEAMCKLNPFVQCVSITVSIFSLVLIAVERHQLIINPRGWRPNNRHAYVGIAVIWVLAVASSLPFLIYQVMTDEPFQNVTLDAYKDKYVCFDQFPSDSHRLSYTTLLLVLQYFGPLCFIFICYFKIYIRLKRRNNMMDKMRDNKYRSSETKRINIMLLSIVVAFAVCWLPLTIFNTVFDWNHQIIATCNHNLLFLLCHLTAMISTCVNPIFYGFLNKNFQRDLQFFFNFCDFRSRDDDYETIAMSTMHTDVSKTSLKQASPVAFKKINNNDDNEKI
Another assay deals with HEK293. Put plainly: Fluorescence-based counterscreen for potentiators or agonists of NPY-Y2: cell-based high-throughput dose response assay to identify inhibitors of cyclic nucleotide gated ion channel (CNGC) activity. In this assay, the parental HEK293 cell line transfected with a cyclic-nucleotide gated ion channel (CNGC)-based cAMP sensor is used to measure inhibition of isoproterenol-induced CNGC activity by test compound. The format is functional. The following applies: Homo sapiens.

The target in assay [9] is Eukaryotic translation initiation factor 4H (Homo sapiens, UniProt Q15056). Put plainly: human eIF4H binding inhibitors, primary screen, translation initiation inhibitor project, biochemical, uHTS, fluorescence polarization (AID 2012).
The target in assay [10] is Polyadenylate-binding protein 1 (Homo sapiens, UniProt P11940). Put plainly: PABP poly(A) RNA binding inhibitors, primary screen, biochemical, fluorescence polarization, uHTS (AID 2014).
Chain of Polyadenylate-binding protein 1 (P11940 whole entry): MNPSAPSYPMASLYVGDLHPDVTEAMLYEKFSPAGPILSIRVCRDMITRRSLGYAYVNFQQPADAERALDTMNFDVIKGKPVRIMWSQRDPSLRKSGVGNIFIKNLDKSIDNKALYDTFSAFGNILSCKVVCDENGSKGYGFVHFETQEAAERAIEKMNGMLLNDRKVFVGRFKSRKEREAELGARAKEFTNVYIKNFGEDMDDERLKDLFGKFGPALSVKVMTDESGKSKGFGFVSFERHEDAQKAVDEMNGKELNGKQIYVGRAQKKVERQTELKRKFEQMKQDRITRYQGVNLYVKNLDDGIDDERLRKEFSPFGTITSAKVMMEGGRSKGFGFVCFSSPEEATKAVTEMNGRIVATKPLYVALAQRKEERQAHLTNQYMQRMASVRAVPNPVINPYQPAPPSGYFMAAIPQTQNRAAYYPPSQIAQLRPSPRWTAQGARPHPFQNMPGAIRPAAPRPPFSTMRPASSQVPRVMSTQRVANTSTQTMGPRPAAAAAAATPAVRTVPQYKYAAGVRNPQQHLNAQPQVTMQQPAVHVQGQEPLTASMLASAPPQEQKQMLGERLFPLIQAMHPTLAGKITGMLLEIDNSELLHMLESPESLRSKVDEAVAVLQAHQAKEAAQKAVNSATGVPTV

Active and inactive are the calls of the source.

Chain of Mucolipin-3 (Q8TDD5 whole entry): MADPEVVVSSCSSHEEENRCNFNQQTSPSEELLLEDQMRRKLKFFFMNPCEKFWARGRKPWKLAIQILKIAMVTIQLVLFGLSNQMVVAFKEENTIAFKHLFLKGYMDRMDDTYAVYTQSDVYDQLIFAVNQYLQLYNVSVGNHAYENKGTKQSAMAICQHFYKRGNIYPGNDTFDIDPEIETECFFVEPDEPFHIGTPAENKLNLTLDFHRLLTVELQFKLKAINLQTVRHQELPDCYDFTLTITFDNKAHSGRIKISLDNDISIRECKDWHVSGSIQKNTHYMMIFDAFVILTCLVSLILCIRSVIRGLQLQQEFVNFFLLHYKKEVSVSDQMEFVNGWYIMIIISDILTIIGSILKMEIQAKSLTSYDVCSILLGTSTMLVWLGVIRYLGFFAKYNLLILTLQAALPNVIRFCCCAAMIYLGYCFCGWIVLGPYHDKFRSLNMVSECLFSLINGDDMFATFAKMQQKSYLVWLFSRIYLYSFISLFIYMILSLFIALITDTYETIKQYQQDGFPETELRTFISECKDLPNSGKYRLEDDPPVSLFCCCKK
Chain of Neuropeptide Y receptor type 2 (P49146 whole entry): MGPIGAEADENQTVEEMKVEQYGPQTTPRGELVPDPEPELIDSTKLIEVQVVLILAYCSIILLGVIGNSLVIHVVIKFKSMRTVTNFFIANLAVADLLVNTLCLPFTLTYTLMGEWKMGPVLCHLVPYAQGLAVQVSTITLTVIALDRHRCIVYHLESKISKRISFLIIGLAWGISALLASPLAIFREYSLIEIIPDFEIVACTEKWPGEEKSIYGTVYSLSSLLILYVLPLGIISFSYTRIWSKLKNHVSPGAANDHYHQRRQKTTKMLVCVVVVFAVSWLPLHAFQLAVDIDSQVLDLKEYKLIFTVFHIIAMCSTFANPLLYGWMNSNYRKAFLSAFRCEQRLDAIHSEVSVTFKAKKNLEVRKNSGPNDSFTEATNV
Chain of Estrogen receptor beta (Q92731 whole entry): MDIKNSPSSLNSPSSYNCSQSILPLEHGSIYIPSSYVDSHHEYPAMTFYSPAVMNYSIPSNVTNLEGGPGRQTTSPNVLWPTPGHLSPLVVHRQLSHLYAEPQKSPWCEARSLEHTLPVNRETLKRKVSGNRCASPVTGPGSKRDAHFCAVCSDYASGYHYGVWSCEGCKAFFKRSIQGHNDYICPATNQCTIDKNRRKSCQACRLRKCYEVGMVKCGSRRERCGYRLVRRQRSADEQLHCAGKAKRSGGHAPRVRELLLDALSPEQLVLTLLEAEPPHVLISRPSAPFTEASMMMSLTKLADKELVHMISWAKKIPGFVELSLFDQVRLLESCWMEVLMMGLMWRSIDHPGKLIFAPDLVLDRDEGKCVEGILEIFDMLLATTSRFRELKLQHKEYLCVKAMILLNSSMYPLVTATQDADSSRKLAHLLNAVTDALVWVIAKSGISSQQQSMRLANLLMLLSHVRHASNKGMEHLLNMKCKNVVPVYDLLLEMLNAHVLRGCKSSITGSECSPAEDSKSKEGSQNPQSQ

`CC1CCN(S(=O)(=O)c2ccc3ccccc3c2)CC1`: the EC50 on Mucolipin-3 is 2.83 µM (active); at Ion channel NompC, > 29.9 µM (not active).
`CN1CCN(C2=C(Cl)C(=O)C(c3cnc(N4CCCCC4)s3)=C(Cl)C2=O)CC1`: in assay [1], the AC50 was > 380 µM (inactive). Moreover, the results for the IC50 (at Estrogen receptor beta; in assay [2]) were 0.63 µM (not active) and 19.2 µM (inactive), respectively. Moreover, the EC50 in assay [3] was 10.1 µM (active); in assay [4] it was 8.57 µM (active); in [5] it was 5.11 µM (active); on Protein RecA, 1.29 µM (active); in assay [6], 4.18 µM (active).
For `CC(C)c1nnc(NC(=O)CCC(=O)Nc2ccc3c[nH]nc3c2)s1`, the EC50 (in assay [7]; in assay [8]; in the assay with HEK293) was > 35.4 µM (not active) throughout.
As for `O=C(C1Cc2ccccc2CN1S(=O)(=O)c1ccc(F)cc1)N1CCCCC1` (configuration not stated), the EC50 on Mucolipin-3 is 2.06 µM (active); on Ion channel NompC, 13.3 µM (not active).
On to `C[N+]1=C2c3ccccc3N=CN2CC1`, for which the results for the IC50 in [9] and in [10] were > 100 µM (inactive) and 4.47 µM (active), respectively.

Source of the values: ChEMBL document CHEMBL1201862, “PubChem BioAssay data set” (2004).
